# Article PMC2358886, “Evolution of pharmacologic specificity in the pregnane X receptor” (BMC Evolutionary Biology, 2008)
# Where two headings read alike, the source gives them in different places.
# What was measured:
# human PXR [1] = molecular target: T1, human PXR (Homo sapiens, UniProt O75469); details: for hPXR Efficacy: human
# T1 sequence (O75469 1-434): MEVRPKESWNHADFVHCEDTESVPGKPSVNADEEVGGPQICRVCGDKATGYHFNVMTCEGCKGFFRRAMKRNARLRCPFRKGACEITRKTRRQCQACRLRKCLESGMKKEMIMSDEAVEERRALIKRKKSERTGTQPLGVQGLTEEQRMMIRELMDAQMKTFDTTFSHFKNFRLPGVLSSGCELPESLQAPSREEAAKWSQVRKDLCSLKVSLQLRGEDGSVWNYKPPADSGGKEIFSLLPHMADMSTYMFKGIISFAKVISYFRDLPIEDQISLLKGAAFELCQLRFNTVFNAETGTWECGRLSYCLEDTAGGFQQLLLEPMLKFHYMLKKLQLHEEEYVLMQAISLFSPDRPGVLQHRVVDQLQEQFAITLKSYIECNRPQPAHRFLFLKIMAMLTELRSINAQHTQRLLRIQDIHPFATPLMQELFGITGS
# HepG2 cells [2] = test system: HepG2 cells
# zebrafish PXR [3] = molecular target: T2, zebrafish PXR (Danio rerio, UniProt A5WYG8)
# T2 sequence (A5WYG8 144-430): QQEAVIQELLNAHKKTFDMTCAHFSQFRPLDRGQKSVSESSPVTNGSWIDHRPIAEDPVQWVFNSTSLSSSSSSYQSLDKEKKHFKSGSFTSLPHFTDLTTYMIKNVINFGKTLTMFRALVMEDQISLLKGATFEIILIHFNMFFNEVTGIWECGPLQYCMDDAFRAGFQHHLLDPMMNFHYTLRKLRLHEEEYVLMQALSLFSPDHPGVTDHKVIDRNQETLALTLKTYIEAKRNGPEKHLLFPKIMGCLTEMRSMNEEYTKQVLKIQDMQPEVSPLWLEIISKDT
# human PXR [4] = molecular target: T1, human PXR; test: PXR activation luciferase reporter assay, human PXR in HepG2-NTCP cells
# zebrafish PXR [5] = molecular target: T2, zebrafish PXR; test: cell-based
# HepG2 cells [6] = test: Toxicity assays in HepG2 cells (MTT and alamar blue reduction); details: lowest concentration that produced significant toxicity in the HepG2 cells
# chicken PXR = molecular target: T3, chicken PXR (Gallus gallus, UniProt Q9DFH3); details: -log(EC50), EC50 in molar units
# T3 sequence (Q9DFH3 1-391): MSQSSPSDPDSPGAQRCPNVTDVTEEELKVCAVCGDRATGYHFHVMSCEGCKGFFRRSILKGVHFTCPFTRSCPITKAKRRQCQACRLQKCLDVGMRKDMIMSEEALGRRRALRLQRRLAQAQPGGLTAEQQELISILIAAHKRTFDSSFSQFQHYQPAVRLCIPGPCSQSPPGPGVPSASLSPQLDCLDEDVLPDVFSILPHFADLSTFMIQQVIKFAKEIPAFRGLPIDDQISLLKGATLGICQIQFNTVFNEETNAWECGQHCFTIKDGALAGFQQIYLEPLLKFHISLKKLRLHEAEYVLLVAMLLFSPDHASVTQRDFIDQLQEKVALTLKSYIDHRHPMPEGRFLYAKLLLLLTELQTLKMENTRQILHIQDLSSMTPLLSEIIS
# rat PXR = molecular target: T4, rat PXR (Rattus norvegicus, UniProt Q9R1A7); details: for Rat PXR Activity: -log(EC50), EC50 in molar units
# T4 sequence (Q9R1A7 1-431): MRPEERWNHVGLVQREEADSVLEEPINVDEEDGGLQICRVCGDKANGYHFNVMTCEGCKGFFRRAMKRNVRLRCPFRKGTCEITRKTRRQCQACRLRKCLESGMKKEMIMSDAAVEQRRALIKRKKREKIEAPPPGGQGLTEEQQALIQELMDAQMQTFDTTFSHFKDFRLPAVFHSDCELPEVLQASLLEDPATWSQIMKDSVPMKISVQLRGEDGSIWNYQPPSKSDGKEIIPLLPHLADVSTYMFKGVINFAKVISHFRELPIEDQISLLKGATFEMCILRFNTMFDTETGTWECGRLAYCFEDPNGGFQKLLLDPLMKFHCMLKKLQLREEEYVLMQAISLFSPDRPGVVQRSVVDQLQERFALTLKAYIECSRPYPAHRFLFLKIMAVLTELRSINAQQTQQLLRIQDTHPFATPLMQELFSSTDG
# mouse PXR = molecular target: T5, mouse PXR (Mus musculus, UniProt O54915); details: for Mouse PXR Activity: -log(EC50), EC50 in molar units
# T5 sequence (O54915 1-431): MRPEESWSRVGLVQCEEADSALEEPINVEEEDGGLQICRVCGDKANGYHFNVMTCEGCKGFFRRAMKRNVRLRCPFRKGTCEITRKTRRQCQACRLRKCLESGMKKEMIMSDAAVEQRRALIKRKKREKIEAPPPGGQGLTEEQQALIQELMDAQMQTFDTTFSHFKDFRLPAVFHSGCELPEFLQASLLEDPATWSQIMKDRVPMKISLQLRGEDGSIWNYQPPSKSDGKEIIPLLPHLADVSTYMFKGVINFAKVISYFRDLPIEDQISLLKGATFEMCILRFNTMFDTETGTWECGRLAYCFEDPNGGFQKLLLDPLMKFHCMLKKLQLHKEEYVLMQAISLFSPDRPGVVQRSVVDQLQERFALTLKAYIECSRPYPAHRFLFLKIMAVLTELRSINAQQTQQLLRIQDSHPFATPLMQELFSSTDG
# [7] = relative to 20 μM 5α-androstan-3α-ol, assigned an efficacy of 1.0
# [8] = hPXR Activity, -log(EC50), EC50 in molar units, activation of human PXR
# [9] = relative to 20 μM pregnenolone 16α-carbonitrile, assigned an efficacy of 1.0
# [10] = -log(EC50), EC50 in molar units, activation of zebrafish PXR
# [11] = -log(EC50), EC50 in molar units, activation of human PXR
smiles,measurement,setting,value
"C[C@]12CCC(=O)C=C1CC[C@@H]1[C@@H]2CC[C@]2(C)C(=O)CC[C@@H]12 [AN7, 4-Androsten-3,17-dione]",hPXR Efficacy,human PXR [1],0.59
same,Toxicity,HepG2 cells [2],None
same,zfPXR Efficacy,zebrafish PXR [3]; [7],0.14
same,EC50,"human PXR [4]; Human PXR EC50 (concentration class, Figure 2A), class read from box colour against the key of Figure 2",11 to 50 µM
same,EC50,human PXR [4]; [8],20.4 µM
same,EC50,"zebrafish PXR [5]; Zebrafish PXR EC50 (concentration class, Figure 2B), class read from box colour, same key as Figure 2A",< 10 µM
same,EC50,"zebrafish PXR [5]; zfPXR Activity, -log(EC50), EC50 in molar units, activation of zebrafish PXR",3.63 µM
"C[C@]12CC[C@@H](O)C[C@@H]1CC[C@@H]1[C@@H]2CC[C@]2(C)C=CC[C@@H]12 [AN10, 5α-Androst-16-en-3α-ol]",Toxicity,HepG2 cells [2],None
same,zfPXR Efficacy,zebrafish PXR [3]; [7],1.02
same,EC50,human PXR [4],5.5 µM
same,EC50,zebrafish PXR [5],3.63 µM
"C[C@@]12CCC[C@H]1[C@@H]1CC[C@H]3CCCC[C@]3(C)[C@H]1CC2 [AN19, 5α-Androstane]",Toxicity,HepG2 cells [6],100 µM
same,hPXR Activity,human PXR [1],None
same,zfPXR Activity,zebrafish PXR [3],None
"C[C@@]12CCC[C@H]1[C@@H]1CC[C@H]3C[C@@H](O)CC[C@]3(C)[C@H]1CC2 [AN20, 5α-Androstan-3β-ol]",hPXR Efficacy,human PXR [1],0.43
same,Toxicity,"HepG2 cells [2]; human, 24 hr",50 µM
same,zfPXR Efficacy,zebrafish PXR [3]; zebrafish,1.66
same,EC50,human PXR [4]; [8],0.794 µM
same,EC50,zebrafish PXR [5],2.69 µM
"C[C@@]12CCC[C@H]1[C@@H]1CC[C@@H]3C[C@H](O)CC[C@]3(C)[C@H]1CC2 [AN23, 5β-Androstan-3α-ol]",hPXR Efficacy,human PXR [1],1.12
same,Toxicity,HepG2 cells [2],None
same,zfPXR Efficacy,zebrafish PXR [3]; zebrafish,0.33
same,EC50,human PXR [4]; [8],1.41 µM
same,EC50,zebrafish PXR [5],2.57 µM
"C[C@@]12C=CC[C@H]1[C@@H]1CCC3=CC(=O)CC[C@]3(C)[C@H]1CC2 [AN24, Androst-4,16-dien-3-one]",Toxicity,"HepG2 cells [2]; human, 24 hr",100 µM
same,zfPXR Efficacy,zebrafish PXR [3]; zebrafish,0.17
same,EC50,human PXR [4],7.08 µM
same,EC50,zebrafish PXR [5],1.1 µM
"C[C@@]12C=CC[C@H]1[C@@H]1CC=C3C[C@@H](O)CC[C@]3(C)[C@H]1CC2 [AN25, Androst-5,16-dien-3β-ol]",hPXR Activity,human PXR [1],None
same,Toxicity,"HepG2 cells [2]; human, 24 hr",100 µM
same,zfPXR Efficacy,zebrafish PXR [3]; zebrafish,1.50
same,EC50,zebrafish PXR [5],2.51 µM
"C[C@H](CCC(=O)NCCS(=O)(=O)O)[C@H]1CC[C@H]2[C@@H]3[C@H](O)C[C@@H]4C[C@H](O)CC[C@]4(C)[C@H]3CC[C@]12C [BI007, Taurochenodeoxycholic acid]",Chicken PXR Activity,chicken PXR,No effect
"CC(CCC(=O)O)C1CCC2C3C(O)C(O)C4CC(O)CCC4(C)C3CCC12C (centres unmarked) [BI017, ω-Muricholic acid]",Rat PXR Activity,rat PXR,No effect
same,Mouse PXR Activity,mouse PXR,No effect
"C[C@H](CCC(=O)O)[C@H]1CC[C@H]2[C@@H]3[C@H](O)[C@@H](O)[C@@H]4C[C@H](O)CC[C@]4(C)[C@H]3CC[C@]12C [BI018, α-Muricholic acid]",Rat PXR Activity,rat PXR,3.95
same,"Rat PXR efficacy, ε",rat PXR; [9],1.31
same,Mouse PXR Activity,mouse PXR,4.59
same,"Mouse PXR efficacy, ε",mouse PXR; [9],2.63
"C[C@H](CCC(=O)O)[C@H]1CC[C@H]2[C@@H]3[C@H](O)C[C@H]4C[C@H](O)CC[C@]4(C)[C@H]3C[C@H](O)[C@]12C [BI031, 5α-Cholanic acid-3α,7α,12α-triol]",Toxicity,HepG2 cells [6],200 µM
same,zfPXR Activity,zebrafish PXR [3]; [10],None
same,Chicken PXR Activity,chicken PXR,No effect
same,hPXR Activity,human PXR [4]; [11],None
"C[C@H](CCC(=O)O)[C@H]1CC[C@H]2[C@@H]3CC[C@@H]4CC(=O)CC[C@]4(C)[C@H]3CC[C@]12C [BI48, 5β-Cholanic acid-3-one]",Toxicity,HepG2 cells [6],None
same,zfPXR Activity,zebrafish PXR [3]; [10],None
same,hPXR Activity,human PXR [4]; [11],5.08
same,hPXR Efficacy,"human PXR [4]; relative to 10 μM rifampicin, assigned an efficacy of 1.0",0.42
